{"source": "patent US20100272680A1", "about": "“Piperidinyl Cyclic Amido Antiviral Agents” (priority 2009, published 2010)", "key": {"[1]": {"tested_on": "HCV Genotype 1A Replicon", "assay": "Replicon assay, genotype 1a subgenomic replicon, luciferase readout", "assay_type": "cell-based", "conditions": "Hepatitis C virus, 48 h, Table 3; luciferase activity after 48 hours", "description": "(§1) Compounds were assayed for activity against HCV using the genotype 1a and 1b subgenomic replicon model systems. Stable cell lines bearing the genotype 1a and 1b replicons were used for screening of compounds. Both replicons are bicistonic and contain the firefly luciferase gene. The ET cell line is stably transfected with RNA transcripts harboring a I389luc-ubi-neo/NS3-3′/ET replicon with firefly luciferase-ubiquitin-neomycin phosphotransferase fusion protein and EMCV-IRES driven NS3-5B polyprotein containing the cell culture adaptive mutations (E1202G; T12801; K1846T) (Krieger at al, 2001 and unpublished). The genotype 1a replicon is a stable cell line licensed from Apath LLC, modified to contain the firefly luciferase gene. The cells were grown in DMEM, supplemented with 10% fetal calf serum, 2 mM Glutamine, Penicillin (100 IU/mL)/Streptomycin (100 μg/mL), 1× nonessential amino acids, and 250-500 μg/mL G418 (“Geneticin”). They were all available through Life Technologies (Bethesda, Md.). The cells were plated at 0.5×10^4 cells/well in 384 well plates containing compounds. The final concentration of compounds ranged between 0.03 μM to 50 μm and the final DMSO concentration of 0.5-1%.\n(§2) Luciferase activity was measured 48 hours later by adding a Steady glo (Promega, Madison, Wis.). Percent inhibition of replication data was plotted relative to no compound control. Under the same condition, cytotoxicity of the compounds was determined using cell titer glo (Promega, Madison, Wis). IC50s were determined from a 10 point dose response curve using 3-4-fold serial dilution for each compound, which spans a concentration range >1000 fold. BioAssay determines the level of inhibition for each compound by normalizing cross-talk corrected plate values against the negative […] controls to determine Percent Inhibition:\n(§3) These normalized values are exported to EC50 where they are plotted against the molar compound concentrations using the standard four parameter logistic equation: […]\n(§4) Some EC50 measurements were repeated a second time and for both 1A and 1B genotypes after those reported in Table 2 for compounds 101-108 and the repeated data was reported in Table 3."}, "[2]": {"tested_on": "HCV Genotype 1B Replicon", "assay": "Replicon assay, genotype 1b subgenomic replicon (ET cell line), luciferase readout", "assay_type": "cell-based", "conditions": "Hepatitis C virus, 48 h, Table 3; luciferase activity after 48 hours", "description": "as §1, §2, §3, §4"}}, "data": [{"smiles": "C[C@H]1C[C@@H](N2CCOC2=O)CCN1C(=O)c1nc2c(C(F)(F)F)cc(-c3ccoc3)cn2c1Cl", "note": "(racemic) [Compound 205, (±) cis-3-(1-{[3-chloro-6-(3-furanyl)-8-(trifluoromethyl)imidazo[1,2-a]pyridin-2-yl]carbonyl}-2-methyl-4-piperidinyl)-1,3-oxazolidin-2-one]", "values": [{"measurement": "EC50", "setting": "[1]", "value": 1070, "unit": "nM"}, {"measurement": "EC50", "setting": "[2]", "value": 1760, "unit": "nM"}]}, {"smiles": "C[C@@H]1C[C@@H](N2CCOC2=O)CCN1C(=O)c1nc2c(C(F)(F)F)cc(-c3ccoc3)cn2c1Cl", "note": "(racemic) [Compound 206, (±) trans-3-(1-{[3-chloro-6-(3-furanyl)-8-(trifluoromethyl)imidazo[1,2-a]pyridin-2-yl]carbonyl}-2-methyl-4-piperidinyl)-1,3-oxazolidin-2-one]", "values": [{"measurement": "EC50", "setting": "[1]", "value": 70, "unit": "nM"}, {"measurement": "EC50", "setting": "[2]", "value": 140, "unit": "nM"}]}, {"smiles": "O=C(c1nc2c(C(F)(F)F)cc(-c3ccoc3)cn2c1Cl)N1CC[C@@H](N2CCOC2=O)[C@H](O)C1", "note": "(racemic) [Compound 212, (±) trans-3-(1-{[3-chloro-6-(3-furanyl)-8-(trifluoromethyl)imidazo[1,2-a]pyridin-2-yl]carbonyl}-3-hydroxy-4-piperidinyl)-1,3-oxazolidin-2-one]", "values": [{"measurement": "EC50", "setting": "[1]", "value": 50, "unit": "nM"}, {"measurement": "EC50", "setting": "[2]", "value": 80, "unit": "nM"}]}, {"smiles": "CC(C)Cc1cc(C(F)(F)F)c2nc(C(=O)N3CC[C@H](N4CCOC4=O)[C@@H](O)C3)c(Cl)n2c1", "note": "(racemic) [Compound 215, (±) trans-3-(1-{[3-chloro-6-(2-methylpropyl)-8-(trifluoromethyl)imidazo[1,2-a]pyridin-2-yl]carbonyl}-3-hydroxy-4-piperidinyl)-1,3-oxazolidin-2-one]", "values": [{"measurement": "EC50", "setting": "[1]", "value": 90, "unit": "nM"}, {"measurement": "EC50", "setting": "[2]", "value": 350, "unit": "nM"}]}, {"smiles": "O=C(c1nc2c(C(F)(F)F)cc(Br)cn2c1Cl)N1CC[C@H](N2CCOC2=O)[C@@H](O)C1", "note": "(racemic) [Compound 219, (±) trans-3-(1-{[6-bromo-3-chloro-8-(trifluoromethyl)imidazo[1,2-a]pyridin-2-yl]carbonyl}-3-hydroxy-4-piperidinyl)-1,3-oxazolidin-2-one]", "values": [{"measurement": "EC50", "setting": "[1]", "value": 150, "unit": "nM"}, {"measurement": "EC50", "setting": "[2]", "value": 580, "unit": "nM"}]}, {"smiles": "O=C(c1nc2c(C(F)(F)F)cc(Br)cn2c1Cl)N1CC[C@H](N2C(=O)COC2=O)[C@@H](O)C1", "note": "(racemic) [Compound 222, (±) trans-3-(1-{[6-bromo-3-chloro-8-(trifluoromethyl)imidazo[1,2-a]pyridin-2-yl]carbonyl}-3-hydroxy-4-piperidinyl)-1,3-oxazolidine-2,4-dione]", "values": [{"measurement": "EC50", "setting": "[1]", "value": 940, "unit": "nM"}, {"measurement": "EC50", "setting": "[2]", "value": 20, "unit": "nM"}]}, {"smiles": "O=C(c1nc2c(C(F)(F)F)cc(-c3ccoc3)cn2c1Cl)N1CC[C@H](N2C(=O)COC2=O)[C@@H](O)C1", "note": "(racemic) [Compound 223, (±) trans-3-(1-{[3-chloro-6-(3-furanyl)-8-(trifluoromethyl)imidazo[1,2-a]pyridin-2-yl]carbonyl}-3-hydroxy-4-piperidinyl)-1,3-oxazolidine-2,4-dione]", "values": [{"measurement": "EC50", "setting": "[1]", "value": 1580, "unit": "nM"}, {"measurement": "EC50", "setting": "[2]", "value": 810, "unit": "nM"}]}, {"smiles": "O=C(c1nc2c(C(F)(F)F)cc(C3CC3)cn2c1Cl)N1CC[C@H](N2C(=O)COC2=O)[C@@H](O)C1", "note": "(racemic) [Compound 224, (±) trans-3-(1-{[3-chloro-6-cyclopropyl-8-(trifluoromethyl)imidazo[1,2-a]pyridin-2-yl]carbonyl}-3-hydroxy-4-piperidinyl)-1,3-oxazolidine-2,4-dione]", "values": [{"measurement": "EC50", "setting": "[1]", "value": 1430, "unit": "nM"}, {"measurement": "EC50", "setting": "[2]", "value": 210, "unit": "nM"}]}, {"smiles": "O=C(c1nc2c(C(F)(F)F)cc(C3CC3)cn2c1Cl)N1CC[C@H](N2CCCC2=O)[C@@H](O)C1", "note": "(racemic) [Compound 225, (±) trans-1-(1-{[3-chloro-6-cyclopropyl-8-(trifluoromethyl)imidazo[1,2-a]pyridin-2-yl]carbonyl}-3-hydroxy-4-piperidinyl)-2-pyrrolidinone]", "values": [{"measurement": "EC50", "setting": "[1]", "value": 480, "unit": "nM"}, {"measurement": "EC50", "setting": "[2]", "value": 150, "unit": "nM"}]}, {"smiles": "O=C(c1nc2c(C(F)(F)F)cc(Br)cn2c1Cl)N1CC[C@H](N2CCCC2=O)[C@@H](O)C1", "note": "(racemic) [Compound 226, (±) trans-1-(1-{[6-bromo-3-chloro-8-(trifluoromethyl)imidazo[1,2-a]pyridin-2-yl]carbonyl}-3-hydroxy-4-piperidinyl)-2-pyrrolidinone]", "values": [{"measurement": "EC50", "setting": "[1]", "value": 2260, "unit": "nM"}, {"measurement": "EC50", "setting": "[2]", "value": 1450, "unit": "nM"}]}, {"smiles": "O=C(c1nc2c(C(F)(F)F)cc(-c3ccoc3)cn2c1Cl)N1CC[C@H](N2CCCC2=O)[C@@H](O)C1", "note": "(racemic) [Compound 227, (±) trans-1-(1-{[3-chloro-6-(3-furanyl)-8-(trifluoromethyl)imidazo[1,2-a]pyridin-2-yl]carbonyl}-3-hydroxy-4-piperidinyl)-2-pyrrolidinone]", "values": [{"measurement": "EC50", "setting": "[1]", "value": 690, "unit": "nM"}, {"measurement": "EC50", "setting": "[2]", "value": 340, "unit": "nM"}]}, {"smiles": "O=C(c1nc2c(C(F)(F)F)cc(C3CC3)cn2c1Cl)N1CC[C@H](N2CCCC2=O)[C@H](O)C1", "note": "(racemic) [Compound 228, (±) cis-1-(1-{[3-chloro-6-cyclopropyl-8-(trifluoromethyl)imidazo[1,2-a]pyridin-2-yl]carbonyl}-3-hydroxy-4-piperidinyl)-2-pyrrolidinone]", "values": [{"measurement": "EC50", "setting": "[1]", "value": 250, "unit": "nM"}, {"measurement": "EC50", "setting": "[2]", "value": 90, "unit": "nM"}]}, {"smiles": "O=C(c1nc2c(C(F)(F)F)cc(Br)cn2c1Cl)N1CC[C@H](N2CCCC2=O)[C@H](O)C1", "note": "(racemic) [Compound 229, (±) cis-1-(1-{[6-bromo-3-chloro-8-(trifluoromethyl)imidazo[1,2-a]pyridin-2-yl]carbonyl}-3-hydroxy-4-piperidinyl)-2-pyrrolidinone]", "values": [{"measurement": "EC50", "setting": "[1]", "value": 960, "unit": "nM"}, {"measurement": "EC50", "setting": "[2]", "value": 350, "unit": "nM"}]}, {"smiles": "O=C(c1nc2c(C(F)(F)F)cc(-c3ccoc3)cn2c1Cl)N1CC[C@H](N2CCCC2=O)[C@H](O)C1", "note": "(racemic) [Compound 230, (±) cis-1-(1-{[3-chloro-6-(3-furanyl)-8-(trifluoromethyl)imidazo[1,2-a]pyridin-2-yl]carbonyl}-3-hydroxy-4-piperidinyl)-2-pyrrolidinone]", "values": [{"measurement": "EC50", "setting": "[1]", "value": 420, "unit": "nM"}, {"measurement": "EC50", "setting": "[2]", "value": 180, "unit": "nM"}]}, {"smiles": "O=C(c1nc2c(C(F)(F)F)cc(C3CC3)cn2c1Cl)N1CC[C@H](N2CCOC2=O)[C@H](O)C1", "note": "(racemic) [Compound 231, (±) cis-3-(1-{[3-chloro-6-cyclopropyl-8-(trifluoromethyl)imidazo[1,2-a]pyridin-2-yl]carbonyl}-3-hydroxy-4-piperidinyl)-1,3-oxazolidin-2-one]", "values": [{"measurement": "EC50", "setting": "[1]", "value": 20, "unit": "nM"}, {"measurement": "EC50", "setting": "[2]", "value": 30, "unit": "nM"}]}, {"smiles": "O=C(c1nc2c(C(F)(F)F)cc(Br)cn2c1Cl)N1CC[C@H](N2CCOC2=O)[C@H](O)C1", "note": "(racemic) [Compound 233, (±) cis-3-(1-{[6-bromo-3-chloro-8-(trifluoromethyl)imidazo[1,2-a]pyridin-2-yl]carbonyl}-3-hydroxy-4-piperidinyl)-1,3-oxazolidin-2-one]", "values": [{"measurement": "EC50", "setting": "[1]", "value": 110, "unit": "nM"}, {"measurement": "EC50", "setting": "[2]", "value": 180, "unit": "nM"}]}, {"smiles": "CO[C@H]1CN(C(=O)c2nc3c(C(F)(F)F)cc(-c4ccoc4)cn3c2Cl)CC[C@@H]1N1CCOC1=O", "note": "(racemic) [Compound 236, (±) trans-3-[1-{[3-chloro-6-(3-furanyl)-8-(trifluoromethyl)imidazo[1,2-a]pyridin-2-yl]carbonyl}-3-(methyloxy)-4-piperidinyl]-1,3-oxazolidin-2-one]", "values": [{"measurement": "EC50", "setting": "[1]", "value": "≥ 5010", "unit": "nM"}, {"measurement": "EC50", "setting": "[2]", "value": "≥ 5010", "unit": "nM"}]}, {"smiles": "CO[C@H]1CN(C(=O)c2nc3c(C(F)(F)F)cc(Br)cn3c2Cl)CC[C@@H]1N1CCOC1=O", "note": "(racemic) [Compound 237, (±) trans-3-[1-{[6-bromo-3-chloro-8-(trifluoromethyl)imidazo[1,2-a]pyridin-2-yl]carbonyl}-3-(methyloxy)-4-piperidinyl]-1,3-oxazolidin-2-one]", "values": [{"measurement": "EC50", "setting": "[1]", "value": "≥ 5010", "unit": "nM"}, {"measurement": "EC50", "setting": "[2]", "value": "≥ 5010", "unit": "nM"}]}, {"smiles": "CO[C@H]1CN(C(=O)c2nc3c(C(F)(F)F)cc(C4CC4)cn3c2Cl)CC[C@@H]1N1CCOC1=O", "note": "(racemic) [Compound 238, (±) trans-3-[1-{[3-chloro-6-cyclopropyl-8-(trifluoromethyl)imidazo[1,2-a]pyridin-2-yl]carbonyl}-3-(methyloxy)-4-piperidinyl]-1,3-oxazolidin-2-one]", "values": [{"measurement": "EC50", "setting": "[1]", "value": "≥ 5010", "unit": "nM"}, {"measurement": "EC50", "setting": "[2]", "value": "≥ 5010", "unit": "nM"}]}, {"smiles": "O=C(c1nc2c(C(F)(F)F)cc(C3CC3)cn2c1Cl)N1CC[C@@H](N2CCOC2=O)[C@H](O)C1", "note": "(single isomer, unassigned; enantiomer 1) [Compound 220, 3-((trans)-1-{[3-chloro-6-cyclopropyl-8-(trifluoromethyl)imidazo[1,2-a]pyridin-2-yl]carbonyl}-3-hydroxy-4-piperidinyl)-1,3-oxazolidin-2-one (Enantiomer 1)]", "values": [{"measurement": "EC50", "setting": "[1]", "value": 20, "unit": "nM"}, {"measurement": "EC50", "setting": "[2]", "value": 30, "unit": "nM"}]}, {"smiles": "O=C(c1nc2c(C(F)(F)F)cc(C3CC3)cn2c1Cl)N1CC[C@H](N2CCOC2=O)[C@H](O)C1", "note": "(single isomer, unassigned; enantiomer 1) [Compound 234, 3-((cis)-1-{[3-chloro-6-cyclopropyl-8-(trifluoromethyl)imidazo[1,2-a]pyridin-2-yl]carbonyl}-3-hydroxy-4-piperidinyl)-1,3-oxazolidin-2-one (Enantiomer 1)]", "values": [{"measurement": "EC50", "setting": "[2]", "value": 50, "unit": "nM"}]}]}
